Patent US10239849B2 (Merck Sharp & Dohme Corp., priority 2015, dated 2019)

Legend:
[1] = biological target: T1, glutathione-S-transferase (GST) tagged LXRbeta LBD (ligand binding domain) (Homo sapiens, UniProt P55055); assay: LanthaScreen TR-FRET Liver X Receptor Coactivator Assay, LXR beta-LBD; assay type: biochemical; conditions: for Emax: efficacy in relation to reference dual agonist T1317, read-out: LXR beta activity at max dose (%) (Emax); for EC50: potency (Inflection Point) of co-activator recruitment, TR-FRET, read-out: LXR beta IP
T1 construct: purchased Invitrogen pv4658.pps
T1 sequence (P55055 222-460 limits assumed): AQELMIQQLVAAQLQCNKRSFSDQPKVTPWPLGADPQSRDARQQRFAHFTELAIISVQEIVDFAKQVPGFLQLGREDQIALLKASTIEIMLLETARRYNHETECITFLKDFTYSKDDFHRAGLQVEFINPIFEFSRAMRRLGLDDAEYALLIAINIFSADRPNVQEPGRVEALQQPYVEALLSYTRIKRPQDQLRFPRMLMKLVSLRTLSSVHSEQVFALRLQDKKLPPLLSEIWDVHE
Experimental: (§1) While running the LanthaScreen™ TR-FRET Liver X Receptor Coactivator Assay, LXR alpha-LBD or LXR beta-LBD was added to ligand test compounds followed by addition of a mixture of a fluorescein-labelled coactivator peptide and terbium-conjugated anti-GST antibody. After an incubation period at room temperature, TR-FRET (time-resolved fluorescence resonance energy transfer) was measured using a filter-based instrument capable of TR-FRET, e.g. PerkinElmer Envision.

[2] = biological target: T2, glutathione-S-transferase (GST) tagged LXRalpha LBD (ligand binding domain) (Homo sapiens, UniProt Q13133); assay: LanthaScreen TR-FRET Liver X Receptor Coactivator Assay, LXR alpha-LBD; assay type: biochemical; conditions: for Emax: efficacy in relation to reference dual agonist T1317, read-out: LXR alpha activity at max dose (%) (Emax); for EC50 / LXR alpha IP (nM): potency (Inflection Point) of co-activator recruitment, TR-FRET; for EC50: read-out: LXR alpha IP
T2 construct: purchased Invitrogen pv4655
T2 sequence (Q13133 209-447 limits assumed): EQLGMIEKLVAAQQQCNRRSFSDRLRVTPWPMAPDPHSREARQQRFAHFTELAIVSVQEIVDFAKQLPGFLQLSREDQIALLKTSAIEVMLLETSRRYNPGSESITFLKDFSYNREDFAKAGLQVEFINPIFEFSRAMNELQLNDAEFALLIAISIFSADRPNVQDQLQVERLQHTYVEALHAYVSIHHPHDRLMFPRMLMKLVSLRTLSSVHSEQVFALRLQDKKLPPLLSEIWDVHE
Experimental: as §1

SMILES	Emax [1]	EC50 [1]	Emax [2]	EC50 [2]	LXR alpha IP (nM) [2]
CN(C)C(=O)c1ccc(-c2cnc(N3CCN(S(=O)(=O)c4c(Cl)cccc4C(F)(F)F)CC3)c(C#N)c2)cc1Cl [Example 1-18, 2-chloro-4-[6-(4-{[2-chloro-6-(trifluoromethyl)phenyl]sulfonyl}piperazin-1-yl)-5-cyanopyridin-3-yl]-N,N-dimethylbenzamide]	126%	0.151 µM	62%	1.67 µM	–
CN(C)C(=O)c1ccc(-c2cnc(N3CCN(C(=O)Cc4ccccc4)CC3)c(C#N)c2)cc1Cl [Example 2-7]	102%	0.05 µM	54%	6.79 µM	–
CN(C)C(=O)c1ccc(-c2ccc(N3CC4CCC(C3)N4S(=O)(=O)c3c(Cl)cccc3Cl)cc2)cc1Cl [Example 8-14, 3-chloro-4′-{8-[(2,6-dichlorophenyl)sulfonyl]-3,8-diazabicyclo[3.2.1]oct-3-yl}-N,N-dimethylbiphenyl-4-carboxamide]	118%	0.076 µM	37%	3.47 µM	–
CN(C)C(=O)c1c(Cl)cc(-c2cnc(N3CC4CCC(C3)N4C(=O)OC(C)(C)C)c(C#N)c2)cc1Cl [Example 7-3, tert-butyl 3-(3-cyano-5-(3,5-dichloro-4-(dimethylcarbamoyl)phenyl)pyridin-2-yl)-3,8-diazabicyclo[3.2.1]octane-8-carboxylate]	67%	0.013 µM	21%	0.151 µM	–
CN(C)C(=O)c1ccc(-c2cnc(N3CCN(C(=O)[C@](C)(O)c4ccccc4)CC3)c(C#N)c2)cc1Cl [Example 2-19, 2-chloro-4-(5-cyano-6-{4-[(2R)-2-hydroxy-2-phenylpropanoyl]piperazin-1-yl}pyridin-3-yl)-N,N-dimethylbenzamide]	77%	0.027 µM	27%	60.2 µM	–
CN(C)C(=O)c1ccc(-c2cnc(N3CCN(C(=O)C4(c5ccc(Cl)cc5Cl)CC4)CC3)c(C#N)c2)cc1Cl [Example 2-34, 2-chloro-4-[5-cyano-6-(4-{[1-(2,4-dichlorophenyl)cyclopropyl]carbonyl}piperazin-1-yl)pyridin-3-yl]-N,N-dimethylbenzamide]	88%	0.025 µM	49%	12.7 µM	–
CCCCC(C)(C)C(=O)N1CCN(c2ncc(-c3ccc(C(=O)N(C)C)c(Cl)c3)cc2C#N)CC1 [Example 2-12, 2-chloro-4-{5-cyano-6-[4-(2,2-dimethylhexanoyl)piperazin-1-yl]pyridin-3-yl}-N,N-dimethylbenzamide]	79%	0.027 µM	43%	1.75 µM	–
CN(C)C(=O)c1ccc(-c2cnc(N3CCN(S(=O)(=O)c4ccccc4C(F)(F)F)CC3)c(C#N)c2)cc1Cl [Example 1-13, 2-chloro-4-[5-cyano-6-(4-{[2-(trifluoromethyl)phenyl]sulfonyl}piperazin-1-yl)pyridin-3-yl]-N,N-dimethylbenzamide]	127%	0.011 µM	60%	1 µM	–
CN(C)C(=O)c1ccc(-c2cnc(N3CCN(C(=O)c4c(F)cccc4F)CC3)c(C#N)c2)cc1Cl [Example 2-1, 2-chloro-4-(5-cyano-6-{4-[(2,6-difluorophenyl)carbonyl]piperazin-1-yl}pyridin-3-yl)-N,N-dimethylbenzamide]	40%	0.212 µM	23%	8.86 µM	–
CN(C)C(=O)c1ccc(-c2cnc(N3CCN(C(=O)C4(c5ccccc5)CCCC4)CC3)c(C#N)c2)cc1Cl [Example 2-26, 2-chloro-4-(5-cyano-6-{4-[(1-phenylcyclopentyl)carbonyl]piperazin-1-yl}pyridin-3-yl)-N,N-dimethylbenzamide]	84%	0.043 µM	25%	1.99 µM	–

Other lines, results leading:

Emax [1]	EC50 [1]	Emax [2]	EC50 [2]	LXR alpha IP (nM) [2]	SMILES
90%	0.833 µM	–	–	–	CN(C)C(=O)c1ccc(-c2ccc(N3CCN(C(=O)c4c(F)cccc4F)CC3)c(Cl)c2)cc1Cl [Example 4-1, 3,3′-dichloro-4′-{4-[(2,6-difluorophenyl)carbonyl]piperazin-1-yl}-N,N-dimethylbiphenyl-4-carboxamide]
75%	1.17 µM	30%	6.58 µM	–	CN(CC(O)c1ccccc1)C(=O)c1ccc(-c2cnc(N3CCN(C(=O)OC(C)(C)C)CC3)c(C#N)c2)cc1Cl (stereo not drawn) [Example 5-29, tert-butyl 4-(5-{3-chloro-4-[(2-hydroxy-2-phenylethyl)(methyl)carbamoyl]phenyl}-3-cyanopyridin-2-yl)piperazine-1-carboxylate]
63%	1.09 µM	37%	2.71 µM	–	CC(C)(C)OC(=O)N1CCN(c2ncc(-c3ccc(C(=O)NCCCO)c(Cl)c3)cc2C#N)CC1 [Example 5-10, tert-butyl 4-(5-{3-chloro-4-[(3-hydroxypropyl)carbamoyl]phenyl}-3-cyanopyridin-2-yl)piperazine-1-carboxylate]
69%	0.082 µM	39%	2.66 µM	–	CON(C)C(=O)c1ccc(-c2cnc(N3CCN(C(=O)OC(C)(C)C)CC3)c(C#N)c2)cc1Cl [Example 5-7, tert-butyl 4-(5-{3-chloro-4-[methoxy(methyl)carbamoyl]phenyl}-3-cyanopyridin-2-yl)piperazine-1-carboxylate]
80%	1.39 µM	9%	–	No IP	CN(C)C(=O)c1ccc(-c2ccc(N3CCN(C(=O)c4ccccc4C(F)(F)F)CC3)cc2)cc1Cl [Example 4-17, 3-chloro-N,N-dimethyl-4′-(4-{[2-(trifluoromethyl)phenyl]carbonyl}piperazin-1-yl)biphenyl-4-carboxamide]
73%	1.19 µM	57%	10 µM	–	CC(C)(C)OC(=O)N1CCN(c2ncc(-c3ccc(C(=O)N(CCO)Cc4ccccc4)c(Cl)c3)cc2C#N)CC1 [Example 5-30, tert-butyl 4-(5-{4-[benzyl(2-hydroxyethyl)carbamoyl]-3-chlorophenyl}-3-cyanopyridin-2-yl)piperazine-1-carboxylate]
71%	0.424 µM	41%	7.47 µM	–	CCc1cc(-c2cnc(N3CCN(C(=O)OC(C)(C)C)CC3)c(C#N)c2)ccc1C(=O)N(C)C [Example 8-17, tert-butyl 4-{3-cyano-5-[4-(dimethylcarbamoyl)-3-ethylphenyl]pyridin-2-yl}piperazine-1-carboxylate]
81%	0.177 µM	54%	3.89 µM	–	CN(C)C(=O)c1ccc(-c2ccc(N3CCN(C(=O)OC(C)(C)C)CC3)c(C#N)c2)cc1Cl [Example 8-15, tert-butyl 4-[3′-chloro-3-cyano-4′-(dimethylcarbamoyl)biphenyl-4-yl]piperazine-1-carboxylate]
78%	0.703 µM	52%	4.83 µM	–	COc1ccc2nc(CCN(C)C(=O)c3ccc(-c4cnc(N5CCN(C(=O)OC(C)(C)C)CC5)c(C#N)c4)cc3Cl)[nH]c2c1 [Example 5-33, tert-butyl 4-[5-(3-chloro-4-{[2-(6-methoxy-1H-benzimidazol-2-yl)ethyl](methyl)carbamoyl}phenyl)-3-cyanopyridin-2-yl]piperazine-1-carboxylate]
68%	0.064 µM	38%	0.882 µM	–	CN(C)C(=O)c1ccc(-c2cnc(N3CC4CCC3CN4C(=O)OC(C)(C)C)c(C#N)c2)cc1Cl (stereo not drawn) [Example 8-8, tert-butyl 5-{5-[3-chloro-4-(dimethylcarbamoyl)phenyl]-3-cyanopyridin-2-yl}-2,5-diazabicyclo[2.2.2]octane-2-carboxylate]
93%	2.33 µM	24%	–	No IP	CN(C)C(=O)c1ccc(-c2ccc(N3CCN(C(=O)c4ccccc4C#N)CC3)cc2)cc1Cl [Example 4-2, 3-chloro-4′-{4-[(2-cyanophenyl)carbonyl]piperazin-1-yl}-N,N-dimethylbiphenyl-4-carboxamide]
93%	0.102 µM	68%	2.98 µM	–	CC(C)(C)OC(=O)N1CCN(c2ncc(-c3ccc(C(=O)N(CCO)CCO)c(Cl)c3)cc2C#N)CC1 [Example 5-19, tert-butyl 4-(5-{4-[bis(2-hydroxyethyl)carbamoyl]-3-chlorophenyl}-3-cyanopyridin-2-yl)piperazine-1-carboxylate]
61%	0.055 µM	48%	1.35 µM	–	CN(C)C(=O)c1ccc(-c2cnc(N3CCN(C(=O)OC(C)(C)C)CC3)c(Cl)c2)cc1Cl [Example 9-1, tert-butyl 4-(3-chloro-5-(3-chloro-4-(dimethylcarbamoyl)phenyl)pyridin-2-yl)piperazine-1-carboxylate]
